# Results from ChEMBL document CHEMBL1201861, “Genomics of Drug Sensitity in Cancer screening data, Wellcome Trust Sanger Institute”.
# Key:
# Assay in all cases: cells
# IST-SL1 = type: functional, cell-based, Homo sapiens; conditions: Homo sapiens, IST-SL1;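 further: growth inhibition of human IST-SL1 cells, read out with a cell viability assay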
# Description: SANGER: Inhibition of human IST-SL1 cell growth in a cell viability assay.
# JVM-2 = type: functional, cell-based, Homo sapiens; conditions: Homo sapiens, JVM-2;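 further: growth inhibition of JVM-2 cells determined by a cell viability assay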
# Description: SANGER: Inhibition of human JVM-2 cell growth in a cell viability assay.
# NCI-H69 = type: functional, cell-based, Homo sapiens; conditions: Homo sapiens, NCI-H69;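 further: growth inhibition of the cell line, read out with a cell viability assay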
# Description: SANGER: Inhibition of human NCI-H69 cell growth in a cell viability assay.
# MS-1 = type: functional, cell-based, Homo sapiens; conditions: Homo sapiens, MS-1;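 further: growth inhibition of MS-1 cells, read out by cell viability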
# Description: SANGER: Inhibition of human MS-1 cell growth in a cell viability assay.
# COR-L88 = type: functional, cell-based, Homo sapiens; conditions: Homo sapiens, COR-L88;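 further: growth inhibition of COR-L88 cells, read out with a cell viability assay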
# Description: SANGER: Inhibition of human COR-L88 cell growth in a cell viability assay.
# EM-2 = type: functional, cell-based, Homo sapiens; conditions: Homo sapiens, EM-2;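 further: growth inhibition of EM-2 cells, read out with a cell viability assay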
# Description: SANGER: Inhibition of human EM-2 cell growth in a cell viability assay.
# NCI-H23 = type: functional, cell-based, Homo sapiens; conditions: Homo sapiens, NCI-H23;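 further: cell viability assay measuring growth inhibition of NCI-H23 cells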
# Description: SANGER: Inhibition of human NCI-H23 cell growth in a cell viability assay.
# U-266 = type: functional, cell-based, Homo sapiens; conditions: Homo sapiens, U-266
# Description: SANGER: Inhibition of human U-266 cell growth in a cell viability assay.
# SNU-5 = type: functional, cell-based, Homo sapiens; conditions: Homo sapiens, SNU-5;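 further: cell viability readout used to measure growth inhibition in human NCI-SNU-5 cells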
# Description: SANGER: Inhibition of human NCI-SNU-5 cell growth in a cell viability assay.
# Lu-65 = type: functional, cell-based, Homo sapiens; conditions: Homo sapiens, Lu-65;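 further: growth inhibition of Lu-65 cancer cells, read out by a cell viability assay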
# Description: SANGER: Inhibition of human LU-65 cell growth in a cell viability assay.
# MPP-89 = type: functional, cell-based, Homo sapiens; conditions: Homo sapiens, MPP-89;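 further: growth inhibition of human MPP-89 cells, read out with a cell viability assay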
# Description: SANGER: Inhibition of human MPP-89 cell growth in a cell viability assay.
# DJM-1 = type: functional, cell-based, Homo sapiens; conditions: Homo sapiens, DJM-1;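 further: growth inhibition of human DJM-1 cells, read out by a cell viability assay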
# Description: SANGER: Inhibition of human DJM-1 cell growth in a cell viability assay.
# IST-MEL1 = type: functional, cell-based, Homo sapiens; conditions: Homo sapiens, IST-MEL1;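 further: growth inhibition of the cell line, read out with a cell viability assay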
# Description: SANGER: Inhibition of human IST-MEL1 cell growth in a cell viability assay.
# 697 = type: functional, cell-based, Homo sapiens; conditions: Homo sapiens
# Description: SANGER: Inhibition of human 697 cell growth in a cell viability assay.
# LS-411N = type: functional, cell-based, Homo sapiens; conditions: Homo sapiens, LS-411N
# no-11 = type: functional, cell-based, Homo sapiens; conditions: Homo sapiens;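 further: growth inhibition of human NO-11 cells, read out with a cell viability assay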
# Description: SANGER: Inhibition of human no-11 cell growth in a cell viability assay.
# BT-474 = type: functional, cell-based, Homo sapiens; conditions: Homo sapiens, BT-474
# Description: SANGER: Inhibition of human BT-474 cell growth in a cell viability assay.
# COLO-668 = type: functional, cell-based, Homo sapiens; conditions: Homo sapiens, COLO-668
# Description: SANGER: Inhibition of human COLO-668 cell growth in a cell viability assay.
# KNS-81-FD = type: functional, cell-based, Homo sapiens; conditions: Homo sapiens, KNS-81-FD;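 further: growth inhibition of KNS-81-FD cells, read out with a cell viability assay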
# Description: SANGER: Inhibition of human KNS-81-FD cell growth in a cell viability assay.
# MFM-223 = type: functional, cell-based, Homo sapiens; conditions: Homo sapiens, MFM-223
# Description: SANGER: Inhibition of human MFM-223 cell growth in a cell viability assay.
# SF-539 = type: functional, cell-based, Homo sapiens; conditions: Homo sapiens, SF-539;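 further: Read-out is a cell viability assay, with IC50 reflecting inhibition of cell growth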
# Description: SANGER: Inhibition of human SF539 cell growth in a cell viability assay.
# CTB-1 = type: functional, cell-based, Homo sapiens; conditions: Homo sapiens, CTB-1
# Description: SANGER: Inhibition of human CTB-1 cell growth in a cell viability assay.
# CTV-1 = type: functional, cell-based, Homo sapiens; conditions: Homo sapiens, CTV-1;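 further: growth inhibition of the cell line, read out with a cell viability assay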
# Description: SANGER: Inhibition of human CTV-1 cell growth in a cell viability assay.
# NH-12 = type: functional, cell-based, Homo sapiens; conditions: Homo sapiens, NH-12;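 further: growth inhibition of NH-12 cells, read out with a cell viability assay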
# Description: SANGER: Inhibition of human NH-12 cell growth in a cell viability assay.
# SK-N-FI = type: functional, cell-based, Homo sapiens; conditions: Homo sapiens, SK-N-FI;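 further: cell viability assay measuring growth inhibition of human SK-N-FI cells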
# Description: SANGER: Inhibition of human SK-N-FI cell growth in a cell viability assay.
# SW872 = type: functional, cell-based, Homo sapiens; conditions: Homo sapiens, SW872;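 further: growth inhibition of SW872 cells, read out by a viability assay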
# Description: SANGER: Inhibition of human SW872 cell growth in a cell viability assay.
# KNS-42 = type: functional, cell-based; conditions: Homo sapiens;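 further: growth inhibition of KNS-42 cells, read out with a cell viability assay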
# Description: SANGER: Inhibition of human KNS-42 cell growth in a cell viability assay.
# SK-N-DZ = type: functional, cell-based, Homo sapiens; conditions: Homo sapiens, SK-N-DZ; read-out: IC50;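 further: growth inhibition of the cancer cell line, read out through a viability assay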
# Description: SANGER: Inhibition of human SK-N-DZ cell growth in a cell viability assay.
# UACC-257 = type: functional, cell-based, Homo sapiens; conditions: Homo sapiens, UACC-257
# Description: SANGER: Inhibition of human UACC-257 cell growth in a cell viability assay.
# COLO-800 = type: functional, cell-based, Homo sapiens; conditions: Homo sapiens, COLO-800;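 further: growth inhibition of COLO-800 cells, read out with a cell viability assay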
# Description: SANGER: Inhibition of human COLO-800 cell growth in a cell viability assay.
# J-RT3-T3-5 = type: functional, cell-based, Homo sapiens; conditions: Homo sapiens, J-RT3-T3-5;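 further: cell viability assay measuring growth inhibition of human J-RT3-T3-5 cells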
# Description: SANGER: Inhibition of human J-RT3-T3-5 cell growth in a cell viability assay.
# LS-1034 = type: functional, cell-based, Homo sapiens; conditions: Homo sapiens, LS-1034
# Description: SANGER: Inhibition of human LS-1034 cell growth in a cell viability assay.
# NCI-H1770 = type: functional, cell-based, Homo sapiens; conditions: Homo sapiens, NCI-H1770;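 further: growth inhibition of NCI-H1770 cells determined with a viability readout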
# Description: SANGER: Inhibition of human NCI-H1770 cell growth in a cell viability assay.
# D-263MG = type: functional, cell-based, Homo sapiens; conditions: Homo sapiens, D-263MG
# Description: SANGER: Inhibition of human D-263MG cell growth in a cell viability assay.
# SNU1 = type: functional, cell-based, Homo sapiens; conditions: Homo sapiens, SNU1;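 further: growth inhibition of human NCI-SNU-1 cells, measured with a cell viability assay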
# Description: SANGER: Inhibition of human NCI-SNU-1 cell growth in a cell viability assay.
# KARPAS-45 = type: functional, cell-based, Homo sapiens; conditions: Homo sapiens, KARPAS-45;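 further: inhibition of cell line growth, read out through a viability assay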
# Description: SANGER: Inhibition of human KARPAS-45 cell growth in a cell viability assay.
# RPMI-8866 = type: functional, cell-based, Homo sapiens; conditions: Homo sapiens, RPMI-8866
# Description: SANGER: Inhibition of human RPMI-8866 cell growth in a cell viability assay.
# ES6 = type: functional, cell-based; conditions: Homo sapiens;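 further: growth inhibition of human ES6 cells, read out with a cell viability assay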
# Description: SANGER: Inhibition of human ES6 cell growth in a cell viability assay.
# A4-Fuk = type: functional, cell-based, Homo sapiens; conditions: Homo sapiens, A4-Fuk;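 further: growth inhibition of A4-Fuk cells, read out by a cell viability assay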
# Description: SANGER: Inhibition of human A4-Fuk cell growth in a cell viability assay.
# EW-11 = type: functional, cell-based, Homo sapiens; conditions: Homo sapiens, EW-11;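 further: growth inhibition of human EW-11 cells, measured with a cell viability assay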
# Description: SANGER: Inhibition of human EW-11 cell growth in a cell viability assay.
# MZ7-mel = type: functional, cell-based, Homo sapiens; conditions: Homo sapiens, MZ7-mel;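 further: growth inhibition of human MZ7-mel cells, measured by a cell viability assay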
# Description: SANGER: Inhibition of human MZ7-mel cell growth in a cell viability assay.
# MOLT-4 = type: functional, cell-based, Homo sapiens; conditions: Homo sapiens, MOLT-4;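 further: growth inhibition of MOLT-4 cells, determined with a cell viability readout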
# Description: SANGER: Inhibition of human MOLT-4 cell growth in a cell viability assay.
# NCI-H209 = type: functional, cell-based, Homo sapiens; conditions: Homo sapiens, NCI-H209;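 further: growth inhibition of human NCI-H209 cells, measured by a cell viability assay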
# Description: SANGER: Inhibition of human NCI-H209 cell growth in a cell viability assay.
# GI-ME-N = type: functional, cell-based, Homo sapiens; conditions: Homo sapiens, GI-ME-N;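 further: growth inhibition of human GI-ME-N cells, read out with a cell viability assay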
# Description: SANGER: Inhibition of human GI-ME-N cell growth in a cell viability assay.
# NCI-H1650 = type: functional, cell-based, Homo sapiens; conditions: Homo sapiens, NCI-H1650;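 further: growth inhibition of human NCI-H1650 cells measured by a cell viability assay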
# Description: SANGER: Inhibition of human NCI-H1650 cell growth in a cell viability assay.
# NB10 = type: functional, cell-based, Homo sapiens; conditions: Homo sapiens, NB10;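 further: growth inhibition of NB10 cells, read out by a cell viability assay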
# Description: SANGER: Inhibition of human NB10 cell growth in a cell viability assay.
# ONS-76 = type: functional, cell-based, Homo sapiens; conditions: Homo sapiens, ONS-76;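 further: growth inhibition of human ONS-76 cells, read out with a cell viability assay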
# Description: SANGER: Inhibition of human ONS-76 cell growth in a cell viability assay.
# IA-LM = type: functional, cell-based; conditions: Homo sapiens;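 further: cell viability assay measuring growth inhibition of human IA-LM cells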
# Description: SANGER: Inhibition of human IA-LM cell growth in a cell viability assay.
# SNU-C2B = type: functional, cell-based; conditions: Homo sapiens;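 further: cell viability readout used to measure compound-driven suppression of SNU-C2B cell proliferation, IC50 marking half-maximal growth inhibition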
# Description: SANGER: Inhibition of human SNU-C2B cell growth in a cell viability assay.
# KLE = type: functional, cell-based; conditions: Homo sapiens;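 further: growth inhibition of human KLE cells, read out with a cell viability assay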
# Description: SANGER: Inhibition of human KLE cell growth in a cell viability assay.
structure (smiles),measurement,setting,value
Nc1ccccc1NC(=O)c1ccc(CNC(=O)OCc2cccnc2)cc1 [ENTINOSTAT],IC50,IST-SL1,773 nM
same,IC50,JVM-2,> 5000 nM
same,IC50,NCI-H69,801 nM
same,IC50,MS-1,> 5000 nM
same,IC50,COR-L88,230 nM
same,IC50,EM-2,241 nM
same,IC50,NCI-H23,> 5000 nM
same,IC50,U-266,2850 nM
same,IC50,SNU-5,> 5000 nM
same,IC50,Lu-65,4150 nM
same,IC50,MPP-89,2330 nM
same,IC50,DJM-1,3600 nM
same,IC50,IST-MEL1,1180 nM
same,IC50,697,99.8 nM
same,IC50,LS-411N,1310 nM
same,IC50,no-11,> 5000 nM
same,IC50,BT-474,1520 nM
same,IC50,COLO-668,> 5000 nM
same,IC50,KNS-81-FD,> 5000 nM
same,IC50,MFM-223,> 5000 nM
same,IC50,SF-539,196 nM
same,IC50,CTB-1,3050 nM
same,IC50,CTV-1,1270 nM
same,IC50,NH-12,> 5000 nM
same,IC50,SK-N-FI,3450 nM
same,IC50,SW872,1810 nM
same,IC50,KNS-42,> 5000 nM
same,IC50,SK-N-DZ,1250 nM
same,IC50,UACC-257,3440 nM
same,IC50,COLO-800,> 5000 nM
same,IC50,J-RT3-T3-5,337 nM
same,IC50,LS-1034,> 5000 nM
same,IC50,NCI-H1770,> 5000 nM
same,IC50,D-263MG,> 5000 nM
same,IC50,SNU1,> 5000 nM
same,IC50,KARPAS-45,278 nM
same,IC50,RPMI-8866,1600 nM
same,IC50,ES6,964 nM
same,IC50,A4-Fuk,1150 nM
same,IC50,EW-11,> 5000 nM
same,IC50,MZ7-mel,561 nM
same,IC50,MOLT-4,1030 nM
same,IC50,NCI-H209,406 nM
same,IC50,GI-ME-N,4060 nM
same,IC50,NCI-H1650,> 5000 nM
same,IC50,NB10,2410 nM
same,IC50,ONS-76,582 nM
CC(C)C[C@H](NC(=O)[C@H](Cc1ccccc1)NC(=O)c1cnccn1)B(O)O [BORTEZOMIB],IC50,IST-SL1,4.68 nM
same,IC50,JVM-2,7.28 nM
same,IC50,NCI-H69,1.54 nM
same,IC50,MS-1,> 20 nM
same,IC50,COR-L88,3.47 nM
same,IC50,EM-2,1.16 nM
same,IC50,NCI-H23,12.1 nM
same,IC50,U-266,1.76 nM
same,IC50,SNU-5,5.17 nM
same,IC50,Lu-65,5.84 nM
same,IC50,MPP-89,1.89 nM
same,IC50,DJM-1,3.63 nM
same,IC50,IST-MEL1,0.917 nM
same,IC50,697,1.99 nM
same,IC50,LS-411N,1.53 nM
same,IC50,no-11,3.55 nM
same,IC50,BT-474,> 20 nM
same,IC50,COLO-668,> 20 nM
same,IC50,KNS-81-FD,2.48 nM
same,IC50,MFM-223,17.9 nM
same,IC50,SF-539,> 20 nM
same,IC50,CTB-1,9.67 nM
same,IC50,CTV-1,2.8 nM
same,IC50,NH-12,> 20 nM
same,IC50,SK-N-FI,> 20 nM
same,IC50,SW872,0.996 nM
same,IC50,KNS-42,0.258 nM
same,IC50,SK-N-DZ,3.26 nM
same,IC50,UACC-257,0.71 nM
same,IC50,COLO-800,17.6 nM
same,IC50,J-RT3-T3-5,> 20 nM
same,IC50,LS-1034,> 20 nM
same,IC50,NCI-H1770,> 20 nM
same,IC50,D-263MG,0.807 nM
same,IC50,SNU1,13.2 nM
same,IC50,KARPAS-45,3.54 nM
same,IC50,RPMI-8866,> 20 nM
same,IC50,ES6,< 0.0781 nM
same,IC50,A4-Fuk,0.623 nM
same,IC50,EW-11,> 20 nM
same,IC50,MZ7-mel,1.09 nM
same,IC50,MOLT-4,2.13 nM
same,IC50,NCI-H209,> 20 nM
same,IC50,GI-ME-N,0.634 nM
same,IC50,NCI-H1650,> 20 nM
same,IC50,NB10,2.32 nM
same,IC50,ONS-76,0.33 nM
O=C(NCCCNc1nc(Nc2cccc(NC(=O)N3CCCC3)c2)ncc1I)c1cccs1 [BX-795],IC50,IST-SL1,2320 nM
same,IC50,MS-1,> 5000 nM
same,IC50,EM-2,2350 nM
same,IC50,NCI-H23,> 5000 nM
same,IC50,U-266,> 5000 nM
same,IC50,MPP-89,> 5000 nM
same,IC50,DJM-1,> 5000 nM
same,IC50,IST-MEL1,> 5000 nM
same,IC50,697,1020 nM
same,IC50,LS-411N,> 5000 nM
same,IC50,no-11,> 5000 nM
same,IC50,BT-474,> 5000 nM
same,IC50,COLO-668,> 5000 nM
same,IC50,KNS-81-FD,> 5000 nM
same,IC50,MFM-223,> 5000 nM
same,IC50,SF-539,3740 nM
same,IC50,CTB-1,2400 nM
same,IC50,NH-12,2800 nM
same,IC50,SK-N-FI,> 5000 nM
same,IC50,SW872,2710 nM
same,IC50,KNS-42,> 5000 nM
same,IC50,SK-N-DZ,> 5000 nM
same,IC50,UACC-257,> 5000 nM
same,IC50,COLO-800,2050 nM
same,IC50,IA-LM,4850 nM
same,IC50,J-RT3-T3-5,> 5000 nM
same,IC50,LS-1034,> 5000 nM
same,IC50,NCI-H1770,> 5000 nM
same,IC50,D-263MG,2380 nM
same,IC50,SNU1,4190 nM
same,IC50,RPMI-8866,> 5000 nM
same,IC50,ES6,> 5000 nM
same,IC50,SNU-C2B,> 5000 nM
same,IC50,A4-Fuk,> 5000 nM
same,IC50,EW-11,> 5000 nM
same,IC50,MZ7-mel,> 5000 nM
same,IC50,MOLT-4,1030 nM
same,IC50,GI-ME-N,1870 nM
same,IC50,NCI-H1650,> 5000 nM
same,IC50,NB10,4230 nM
same,IC50,KLE,> 5000 nM
same,IC50,ONS-76,4080 nM
CO[C@@H]1[C@H](N(C)C(=O)c2ccccc2)C[C@H]2O[C@]1(C)n1c3ccccc3c3c4c(c5c6ccccc6n2c5c31)C(=O)NC4 [MIDOSTAURIN],IC50,Lu-65,> 512 nM
same,IC50,no-11,> 512 nM
same,IC50,SW872,> 512 nM
same,IC50,NCI-H1770,> 512 nM
same,IC50,KARPAS-45,> 512 nM
